According to the NIST ThermoML archive (doi:10.1021/je060271a):

Conditions: 323.15 K, Liquid, Vibrating tube method

CCCCC(=O)OCC(COC(=O)CCCC)(COC(=O)CCCC)COC(=O)CCCC [pentaerythritol tetrapentanoate]
Conditions	mass density [kg/m3]
25366 kPa	1011.6
25395 kPa	1011.5
25431 kPa	1011.6
25460 kPa	1011.6
25495 kPa	1011.6
25525 kPa	1011.6
25555 kPa	1011.6
25590 kPa	1011.6
25620 kPa	1011.7
25651 kPa	1011.7
25684 kPa	1011.7
25714 kPa	1011.8
25750 kPa	1011.8
25780 kPa	1011.9
25817 kPa	1011.9
25847 kPa	1011.7
25878 kPa	1011.8
25908 kPa	1012
25945 kPa	1011.9
25976 kPa	1011.9
26007 kPa	1011.9
26044 kPa	1011.9
26076 kPa	1011.8
26107 kPa	1012
26145 kPa	1012
26176 kPa	1012
26208 kPa	1012.1
26245 kPa	1012.1
26277 kPa	1012
26308 kPa	1012.1
26346 kPa	1012
26378 kPa	1012.2
26410 kPa	1012.2
26448 kPa	1012.2
26480 kPa	1012.3
26512 kPa	1012.2
26551 kPa	1012.2
26584 kPa	1012.3
26617 kPa	1012.3
26656 kPa	1012.3
26689 kPa	1012.2
26722 kPa	1012.4
26754 kPa	1012.4
26794 kPa	1012.3
26826 kPa	1012.3
26860 kPa	1012.3
26900 kPa	1012.5
26933 kPa	1012.5
26967 kPa	1012.4
27007 kPa	1012.6
27041 kPa	1012.5
27075 kPa	1012.5
27109 kPa	1012.6
27150 kPa	1012.7
27183 kPa	1012.7
27218 kPa	1012.7
27258 kPa	1012.7
27292 kPa	1012.6
27327 kPa	1012.6
27362 kPa	1012.7
27404 kPa	1012.7
27440 kPa	1012.7
27475 kPa	1012.8
27510 kPa	1012.9
27552 kPa	1012.9
27586 kPa	1012.9
27628 kPa	1012.9
27663 kPa	1012.9
27698 kPa	1012.9
27733 kPa	1012.9
27776 kPa	1013.1
27811 kPa	1013.1
27847 kPa	1013
27890 kPa	1013.1
27926 kPa	1013.1
27968 kPa	1013.1
28005 kPa	1013.1
28041 kPa	1013.1
28077 kPa	1013.2
28122 kPa	1013.2
28158 kPa	1013.1
28195 kPa	1013.3
28238 kPa	1013.2
28276 kPa	1013.3
28313 kPa	1013.4
28357 kPa	1013.2
28396 kPa	1013.3
28435 kPa	1013.4
28472 kPa	1013.4
28511 kPa	1013.4
28557 kPa	1013.5
28595 kPa	1013.5
28633 kPa	1013.5
28672 kPa	1013.6
28719 kPa	1013.5
28798 kPa	1013.6
28964 kPa	1013.6
28998 kPa	1013.7
29025 kPa	1013.8
29053 kPa	1013.7
29087 kPa	1013.7
29115 kPa	1013.8
29143 kPa	1013.8
29325 kPa	1013.9
29354 kPa	1014
29388 kPa	1013.9
29418 kPa	1014
29452 kPa	1014
29480 kPa	1013.9
29509 kPa	1014.1
29544 kPa	1014
29573 kPa	1014
29602 kPa	1014.1
29638 kPa	1014.2
29667 kPa	1014.1
29697 kPa	1014.1
29733 kPa	1014.2
29762 kPa	1014.2
29792 kPa	1014.2
29822 kPa	1014.1
29857 kPa	1014.2
29886 kPa	1014.2
29917 kPa	1014.3
29952 kPa	1014.3
29982 kPa	1014.4
30012 kPa	1014.3
30049 kPa	1014.4
30078 kPa	1014.4
30109 kPa	1014.5
30146 kPa	1014.5
30177 kPa	1014.4
30208 kPa	1014.5
30238 kPa	1014.4
30275 kPa	1014.4
30306 kPa	1014.5
30342 kPa	1014.6
30373 kPa	1014.5
30404 kPa	1014.6
30435 kPa	1014.6
30472 kPa	1014.7
30504 kPa	1014.6
30535 kPa	1014.7
30573 kPa	1014.7
30604 kPa	1014.7
30641 kPa	1014.6
30673 kPa	1014.7
30705 kPa	1014.8
30742 kPa	1014.7
30774 kPa	1014.9
30806 kPa	1014.9
30838 kPa	1014.8
30876 kPa	1014.9
30908 kPa	1014.9
30947 kPa	1014.9
30979 kPa	1014.9
31012 kPa	1014.9
31051 kPa	1014.9
31084 kPa	1015
31116 kPa	1015.1
31149 kPa	1015
